Measured values reported in patent US20260262643A1, “HERBICIDAL BENZOXAZINES” (FMC CORPORATION, priority 2022, published 2026).

Experiments:
[1] = system: ryegrass, Italian; assay: Test C postemergence; assay type: in vivo, Lolium multiflorum; conditions: Postemergence, 1000 g ai/ha
From the text: (§1) Seeds of plant species selected from barnyardgrass (Echinochloa crusgalli), blackgrass (Alopecurus myosuroides), corn (Zea mays), foxtail, giant (giant foxtail, Setaria faberi), green foxtail (Setaria viridis), goosegrass (Eleusine indica), kochia (Bassia scoparia), oat, wild (wild oat, Avena fatua), pigweed, palmer (palmer amaranth, palmer pigweed, Amaranthus palmeri), Pigweed, Redroot (redroot pigweed, Amaranthus retroflexus), ragweed (common ragweed, Ambrosia artemisiifolia), ryegrass, Italian ([…] ryegrass, Lolium multiflorum), soybean (Glycine max), and wheat (Triticum aestivum) were planted into a blend of loam soil and sand and treated preemergence with a directed soil spray using test chemicals formulated in a non-phytotoxic solvent mixture which included a surfactant. At the same time, plants selected from these crops and weed species and also galium (catchweed bedstraw, Galium aparine) and horseweed (Erigeron canadensis) were planted in pots containing the same blend of loam soil and sand and treated with postemergence applications of test chemicals formulated in the same manner. Plants ranged in height from 2 to 10 cm and were in the one- to two-leaf stage for the postemergence treatment. Treated plants and untreated controls were maintained in a greenhouse for 10 days, after which time all treated plants were compared to untreated controls and visually evaluated for injury. Plant response ratings, summarized in Table C, are based on a 0 to 100 scale where 0 is no effect and 100 is complete control. A dash (-) response means no test result.

[2] = system: blackgrass; assay: Test C preemergence; assay type: in vivo, Alopecurus myosuroides; conditions: Preemergence, 1000 g ai/ha; visual rating after 10 days, 0 to 100 scale (0 no effect, 100 complete control)
From the text: as §1

[3] = system: ragweed; assay: Test C postemergence; assay type: in vivo, Ambrosia artemisiifolia; conditions: Postemergence, 1000 g ai/ha
From the text: as §1

[4] = system: barnyardgrass; assay: Test C postemergence; assay type: in vivo, Echinochloa crusgalli; conditions: Postemergence, 1000 g ai/ha
From the text: as §1

[5] = system: blackgrass; assay: Test C postemergence; assay type: in vivo, Alopecurus myosuroides; conditions: Postemergence, 1000 g ai/ha
From the text: as §1

[6] = system: barnyardgrass; assay: Test C preemergence; assay type: in vivo, Echinochloa crusgalli; conditions: Preemergence, 1000 g ai/ha; visual rating after 10 days, 0 to 100 scale (0 no effect, 100 complete control)
From the text: as §1

[7] = system: kochia; assay: Test C postemergence; assay type: in vivo, Bassia scoparia; conditions: Postemergence, 1000 g ai/ha
From the text: as §1

[8] = system: green foxtail; assay: Test C postemergence; assay type: in vivo, Setaria viridis; conditions: Postemergence, 1000 g ai/ha
From the text: as §1

[9] = system: green foxtail; assay: Test C preemergence; assay type: in vivo, Setaria viridis; conditions: Preemergence, 1000 g ai/ha; visual rating after 10 days, 0 to 100 scale (0 no effect, 100 complete control)
From the text: as §1

[10] = system: kochia; assay: Test C preemergence; assay type: in vivo, Bassia scoparia; conditions: Preemergence, 1000 g ai/ha; visual rating after 10 days, 0 to 100 scale (0 no effect, 100 complete control)
From the text: as §1

[11] = system: pigweed, palmer; assay: Test C postemergence; assay type: in vivo, Amaranthus palmeri; conditions: Postemergence, 1000 g ai/ha
From the text: as §1

[12] = system: ragweed; assay: Test C preemergence; assay type: in vivo, Ambrosia artemisiifolia; conditions: Preemergence, 1000 g ai/ha; visual rating after 10 days, 0 to 100 scale (0 no effect, 100 complete control)
From the text: as §1

[13] = system: pigweed, palmer; assay: Test C preemergence; assay type: in vivo, Amaranthus palmeri; conditions: Preemergence, 1000 g ai/ha; visual rating after 10 days, 0 to 100 scale (0 no effect, 100 complete control)
From the text: as §1

[14] = system: ryegrass, Italian; assay: Test C preemergence; assay type: in vivo, Lolium multiflorum; conditions: Preemergence, 1000 g ai/ha; visual rating after 10 days, 0 to 100 scale (0 no effect, 100 complete control)
From the text: as §1

[15] = system: horseweed; assay: Test C postemergence; assay type: in vivo, Erigeron canadensis; conditions: Postemergence, 1000 g ai/ha
From the text: as §1

[16] = system: galium; assay: Test C postemergence; assay type: in vivo, Galium aparine; conditions: Postemergence, 1000 g ai/ha
From the text: as §1

[17] = 0 to 100 scale, 0 no effect, 100 complete control
[18] = 10 days, visual 0 to 100 scale (0 no effect, 100 complete control)

## Cc1ccc(-c2cccc(C(=O)N3C[C@H](C)Oc4c(Cl)cccc43)c2)o1 [Compound 204]
[1]; [17]
  Plant response rating, Ryegrass, Italian: 0
[2]
  Plant response rating, Blackgrass: 0
[3]; [17]
  Plant response rating, Ragweed: 20
[4]; [17]
  Plant response rating, Barnyardgrass: 0
[5]; [17]
  Plant response rating, Blackgrass: 0
[6]
  Plant response rating, Barnyardgrass: 0
[7]; [17]
  Plant response rating, Kochia: 0
[8]; [17]
  Plant response rating, Foxtail, Green: 0
[9]
  Plant response rating, Foxtail, Green: 0
[10]
  Plant response rating, Kochia: 20
[11]; [17]
  Plant response rating, Pigweed, Palmer: 10
[12]
  Plant response rating, Ragweed: 0
[13]
  Plant response rating, Pigweed, Palmer: 10
[14]
  Plant response rating, Ryegrass, Italian: 40
[15]; [17]
  Plant response rating, Horseweed: 0
[16]; [17]
  Plant response rating, Galium: 50

## Cc1ccc(-c2cccc(C(=O)N3C[C@H](C)Oc4c(C)cccc43)c2)s1 [Compound 244]
[1]; [18]
  Plant response rating, Ryegrass, Italian: 80
[2]
  Plant response rating, Blackgrass: 0
[3]; [18]
  Plant response rating, Ragweed: 20
[4]; [17]
  Plant response rating, Barnyardgrass: 20
[5]; [18]
  Plant response rating, Blackgrass: 20
[6]
  Plant response rating, Barnyardgrass: 50
[7]; [18]
  Plant response rating, Kochia: 50
[8]; [18]
  Plant response rating, Foxtail, Green: 20
[9]
  Plant response rating, Foxtail, Green: 50
[10]
  Plant response rating, Kochia: 0
[11]; [18]
  Plant response rating, Pigweed, Palmer: 60
[12]
  Plant response rating, Ragweed: 50
[13]
  Plant response rating, Pigweed, Palmer: 0
[14]
  Plant response rating, Ryegrass, Italian: 90
[15]; [18]
  Plant response rating, Horseweed: 90
[16]; [18]
  Plant response rating, Galium: 60

## C[C@H]1CN(C(=O)c2cccc(-c3ccn(C)n3)c2)c2cccc(Cl)c2O1 [Compound 205]
[1]; [18]
  Plant response rating, Ryegrass, Italian: 40
[2]
  Plant response rating, Blackgrass: 0
[3]; [18]
  Plant response rating, Ragweed: 20
[4]; [17]
  Plant response rating, Barnyardgrass: 10
[5]; [18]
  Plant response rating, Blackgrass: 30
[6]
  Plant response rating, Barnyardgrass: 0
[7]; [18]
  Plant response rating, Kochia: 50
[8]; [18]
  Plant response rating, Foxtail, Green: 30
[9]
  Plant response rating, Foxtail, Green: 40
[10]
  Plant response rating, Kochia: 50
[11]; [18]
  Plant response rating, Pigweed, Palmer: 30
[12]
  Plant response rating, Ragweed: 0
[13]
  Plant response rating, Pigweed, Palmer: 60
[14]
  Plant response rating, Ryegrass, Italian: 40
[15]; [18]
  Plant response rating, Horseweed: 0
[16]; [18]
  Plant response rating, Galium: 0

## CCOC(=O)c1cncn1-c1cccc(C(=O)N2C[C@H](C)Oc3c(C)cccc32)c1 [Compound 298]
[1]; [18]
  Plant response rating, Ryegrass, Italian: 0
[2]
  Plant response rating, Blackgrass: 0
[3]; [18]
  Plant response rating, Ragweed: 40
[4]; [18]
  Plant response rating, Barnyardgrass: 0
[5]; [18]
  Plant response rating, Blackgrass: 0
[6]
  Plant response rating, Barnyardgrass: 0
[7]; [18]
  Plant response rating, Kochia: 0
[8]; [18]
  Plant response rating, Foxtail, Green: 0
[9]
  Plant response rating, Foxtail, Green: 30
[10]
  Plant response rating, Kochia: 50
[11]; [18]
  Plant response rating, Pigweed, Palmer: 0
[12]
  Plant response rating, Ragweed: 0
[13]
  Plant response rating, Pigweed, Palmer: 40
[14]
  Plant response rating, Ryegrass, Italian: 0
[15]; [18]
  Plant response rating, Horseweed: 0
[16]; [18]
  Plant response rating, Galium: 20

## C[C@H]1CN(C(=O)c2cccc(-c3ccc(Cl)nc3)c2)c2cccc(Cl)c2O1 [Compound 383]
[1]; [18]
  Plant response rating, Ryegrass, Italian: 0
[2]
  Plant response rating, Blackgrass: 0
[3]; [18]
  Plant response rating, Ragweed: 0
[4]; [18]
  Plant response rating, Barnyardgrass: 10
[5]; [18]
  Plant response rating, Blackgrass: 10
[6]
  Plant response rating, Barnyardgrass: 0
[7]; [18]
  Plant response rating, Kochia: 50
[8]; [18]
  Plant response rating, Foxtail, Green: 0
[9]
  Plant response rating, Foxtail, Green: 20
[10]
  Plant response rating, Kochia: 0
[11]; [18]
  Plant response rating, Pigweed, Palmer: 50
[12]
  Plant response rating, Ragweed: 0
[13]
  Plant response rating, Pigweed, Palmer: 10
[14]
  Plant response rating, Ryegrass, Italian: 0
[15]; [18]
  Plant response rating, Horseweed: 0
[16]; [18]
  Plant response rating, Galium: 0
